This is an account of results in patent US8507219B2, “Method of treating inflammation with statins” (MUSC Foundation for Research Development, priority 1997, dated 2013).

Experiment [1] has as its system NO production in rat resident macrophages. Description: LPS-/cytokine-induced NO production (nitrite) in rat resident peritoneal macrophages. Format: cell-based. As to conditions: LPS 1.0 μg/ml, 24 h. The protocol: Isolation of Rat Macrophages and Induction of NO Production Resident macrophages were obtained from rats by peritoneal lavage with sterile RPMI 1640 medium containing 1% fetal bovine serum and 100 μg/ml gentamicin (Wang et al., 1995). Cells were washed three times with RPMI 1640 at 4° C. All cell cultures were maintained at 37° C. in a humidified incubator containing 5% CO2 in air. Macrophages, at a concentration of 2×10^6/ml in RPMI 1640 medium containing L-glutamine and gentamicin, were added in volumes of 800 μl to a 35 mm plate. After 1 h, nonadherent cells were removed by washing and 800 μl of serum-free RPMI 1640 medium with various stimuli were added to the adherent cells. After 24 h incubation in 5% CO2 in air at 37° C., the culture supernatants were transferred to measure NO production (Geng et al., 1995; Wang et al., 1995).
Isolation of rat macrophages and induction of NO production Resident macrophages were obtained from rat by peritoneal lavage with sterile RPMI 1640 medium containing 1% fetal bovine serum and 100 μg/ml gentamicin as described herein. Cells were washed three times with RPMI 1640 at 4° C. All cell cultures were maintained at 37° C. in a humidified incubator containing 5% CO2 in air. Macrophages at a concentration of 2×10^6/ml in RPMI 1640 medium containing L-glutamine and gentamicin were added in volumes of 800 μl to a 35 mm plate. After 1 h, nonadherent cells were removed by washing and 800 μl of serum-free RPMI 1640 medium with various stimuli were added to the adherent cells. After incubation in 5% CO2 in air at 37° C., culture supernatants were transferred to measure NO production.
Isolation of rat macrophages and induction of NO production Resident macrophages were obtained from rat by peritoneal lavage with sterile RPMI 1640 medium containing 1% FBS and 100 μg/ml gentamicin. Cells were washed three times with RPMI 1640 at 4° C., and were maintained at 37° C. in a humidified incubator containing 5% CO2 in air. Macrophages at a concentration of […] in RPMI 1640 medium containing L-glutamine and gentamicin were added in volumes of 800 μl to a 35-mm plate. After 1 h, nonadherent cells were removed by washing, and 800 μl of serum-free RPMI 1640 medium with various stimuli was added to the adherent cells. After 24 h the culture supernatants were transferred to measure NO production.
Protein was measured (Bradford, 1976).

For experiment [2], the system named is NO production in rat C6 glial cells. Description: LPS-/cytokine-induced NO production (nitrite) in C6 glial cells. In kind it is cell-based. As to conditions: 2 nM calyculin A along with LPS and cytokines, 24 h.
For experiment [3], the system named is TNF-α production in rat primary astrocytes. The experiment can be described thus: LPS-induced TNF-α production (ELISA) in rat primary astrocytes. Format: cell-based. The conditions noted are these: Astrocytes, LPS 1.0 μg/ml, 24 h. Here is the method: Determination of TNF-α and IL-1β in culture supernatants Cells were stimulated with LPS in serum-free media for 24 h in the presence or absence of forskolin or rolipram, and concentrations of TNF-α and IL-1β were measured in culture supernatants by using high-sensitivity enzyme-linked immunosorbent assay (R&D Systems, USA) according to the manufacturer's instructions.
For orientation: An ELISA detects its analyte on a solid surface through an enzyme-linked reagent.

In experiment [4] the test system is iNOS. The experiment can be described thus: Expression of iNOS protein (immunoblot) and mRNA (Northern) in rat primary astrocytes. In kind it is cell-based. The conditions noted are these: LPS 1.0 μg/ml. The protocol: Immunoblot analysis for iNOS Following 24 h incubation in the presence or absence of stimuli by different cytokines or LPS, macrophages were scraped off, washed with Hank's buffer, and homogenized in 50 mM Tris-HCl (pH 7.4) containing protease inhibitors ([…] PMSF, 5 μg/ml aprotinin, 5 μg/ml pepstatin A, and 5 μg/ml leupeptin). After electrophoresis the proteins were transferred onto a nitrocellulose membrane, and the iNOS band was visualized by immunoblotting with antibodies against mouse macrophage iNOS and [^125I]-labeled protein A (Singh et al., 1988).
RNA isolation, Northern blot analysis, and reverse-transcriptase coupled polymerase chain reaction (RT-PCR) Stimulated peritoneal macrophages were taken out from culture dishes directly by adding Ultraspec-II RNA reagent (Biotecx Laboratories Inc.) and total RNA was isolated according to the manufacturer's protocol. For northern blot analyses, 20 μg of total RNA was electrophoresed on 1.2% denaturing formaldehyde-agarose gels, electrotransferred to Hybond-Nylon Membrane (Amersham) and hybridized at 68° C. with ^32P-labeled cDNA probe using Express Hyb hybridization solution (Clontech) as described by the manufacturer. […]; After hybridization filters were washed two to three times in solution I (2×SSC, 0.05% SDS) for 1 h at room temperature followed by solution II (0.1×SSC, 0.1% SDS) at 50° C. for another hour. The membranes were then dried and exposed to X-ray film (Kodak). The same filters were stripped and rehybridized with probes for GAPDH. The relative mRNA content for iNOS was measured after scanning the bands with a Biorad (Model GS-670) imaging densitometer.
Immunoblot analysis for iNOS Following 24 h incubation in the presence or absence of different stimuli, cells were scraped off, washed with Hank's buffer, and homogenized in 50 mM Tris-HCl (pH 7.4) containing protease inhibitors. After electrophoresis the proteins were transferred onto a nitrocellulose membrane, and the iNOS band was visualized by immunoblotting with antibodies against mouse macrophage iNOS and [^125I]-labeled protein A.
RNA isolation and Northern blot analysis Cells were taken out from culture dishes directly by adding Ultraspec-II RNA reagent (Biotecx Laboratories Inc.) and total RNA was isolated according to the manufacturer's protocol. For Northern blot analyses, 20 μg of total RNA was electrophoresed on 1.2% denaturing formaldehyde-agarose gels, electrotransferred to Hybond-Nylon Membrane (Amersham) and hybridized at 68° C. with ^32P-labeled cDNA probe using Express Hyb hybridization solution (Clontech) as described by the manufacturer. […]; After hybridization filters were washed two or three times in solution I (2×SSC, 0.05% SDS) for one hour at room temperature followed by solution II (0.1×SSC, 0.1% SDS) at 50° C. for another hour. The membranes were then dried and exposed with X-ray films (Kodak). The same filters were stripped and rehybridized with probes for GAPDH. The relative mRNA content for iNOS was measured after scanning the bands with a Biorad (Model GS-670) imaging densitometer.
Immunoblot analysis for iNOS After a 24 h incubation in the presence or absence of different stimuli, cells were scraped off, washed with Hank's buffer, and homogenized in 50 mM Tris-HCl (pH 7.4) containing protease inhibitors (1 mM PMSF, 5 μg/ml aprotinin, 5 μg/ml pepstatin A, and 5 μg/ml leupeptin). After electrophoresis the proteins were transferred onto a nitrocellulose membrane, and the iNOS band was visualized by immunoblotting with antibodies against mouse macrophage iNOS and [^125I]-labeled protein A.
RNA isolation and Northern blot analysis Cells were taken out from culture dishes directly by adding Ultraspec-II RNA reagent (Biotecx Laboratories Inc., Houston, Tex.), and total RNA was isolated according to the manufacturer's protocol. […]
On the technique in general: In western blotting, separated proteins are transferred to a membrane and probed.

For experiment [5], the system named is PP 1/2A. The experiment can be described thus: PP1/2A activity in homogenates of LPS-treated astrocytes. The conditions noted are these: LPS 1.0 μg/ml, 30 min; okadaic acid 0-20 nM. Format: cell-based, rat. Here is the method: In vitro PP1/2A assay The extraction and assay for PP1/2A were performed as described (Begum and Ragolia, 1996). Control and treated cells were scraped off the dishes with 0.3 ml of phosphatase extraction buffer containing 20 mM imidazole-HCl, 2 mM EDTA, 2 mM EGTA, pH 7.0, with 10 μg/ml each of aprotinin, leupeptin, antipain, soybean trypsis inhibitor, 1 mM benzamide, and 1 mM PMSF. The cells were sonicated for 10 s and centrifuged at 2000×g for 5 min, and the supernatants were used for the assay of phosphatase activities using the protein phosphatase assay kit (Life Technologies, Inc.) according to the manufacturer's protocol.

In experiment [6] the test system is murine macrophage cell line RAW 264.7. Description: LPS-/cytokine-induced NO production and iNOS protein in RAW 264.7. Format: cell-based. The conditions noted are these: 24 h. Here is the method: Cells in this study were incubated in serum-free DMEM/F-12 received calyculin A along with LPS and cytokines. Samples tested included control, LPS+TNF-α, TNF-α+IFN-γ, TNF-α+IL-1β, LPS+TNF-α+calyculin A, TNF-α+IFN-γ+calyculin A, and TNF-α+IL-1β+calyculin A. After 24 h, concentration of nitrite (nmol/mg/24 h) was measured in the supernatants as described in Example 6. Data are mean±S.D. of three different studies. Cell homogenates were electrophoresed, transferred on […] against mouse macrophage iNOS as described.

For experiment [7], the system named is TNF-α production in rat resident macrophages. Description: LPS-/IFN-γ-induced TNF-α production (ELISA) in rat macrophages. In kind it is cell-based. As to conditions: Macrophages, LPS 1.0 μg/ml, 24 h.
Experiment [8] relates to iNOS promoter. The experiment can be described thus: iNOS promoter-derived CAT activity in rat primary astrocytes. As to conditions: LPS 1.0 μg/ml, 14 h. Format: cell-based. Here is the method:
(§1) Construction of reporter plasmid, transfection and assay of chloramphenicol acetyl transferase activity The CAT (chloramphenicol acetyl transferase) under the control of nitric oxide synthase promoter (iNOS) was created by subcloning 1.5 kb promoter from pGEM-NOS at Sph I and Sal I restriction sites of pCAT-basic vector (Promega). […]. The cells were transfected by using the lipofectin (Life Technologies Inc., USA) method, as has been described in manufacturer's protocol, with 2 μg of reporter plasmid. They were then stimulated 24 h after transfection and harvested after 14 h of stimulation. CAT activity was measured as has been described.

Experiment [9] deals with iNOS promoter. The experiment can be described thus: iNOS promoter-derived CAT activity in rat macrophages. In kind it is cell-based. As to conditions: LPS 1.0 μg/ml, 14 h. Here is the method: as §1

For the compound `COC[C@@H]([C@H](O)[C@H](O)C(=O)NCC[C@H](C)c1nc(/C=C/C[C@@H]2O[C@]3(C[C@@H](O)[C@@H]2C)O[C@H]([C@H](C[C@H](O)[C@H](C)[C@H](O)[C@H](C)/C=C(C)/C(C)=C/C=C/C(C)=C\C#N)OC)[C@H](OP(=O)(O)O)C3(C)C)co1)N(C)C` [Calyculin A], the “LPS-induced NO production” value in experiment [1] was “inhibited the LPS-induced NO production in rat peritoneal macrophages”. For the same compound, the “stimulation of the production of NO” value in experiment [2] was “more than three fold”. For the same compound, the TNF-α in experiment [3] (inhibitor 1 nM) is recorded as 12.5 ± 1.6 ng/24 h/mg protein; in experiment [3] (inhibitor 2 nM), 16.9 ± 2.1 ng/24 h/mg protein; in experiment [7] (inhibitor 1 nM), 27.5 ± 3.1 ng/24 h/mg protein; in experiment [7] (inhibitor 2 nM) it was 31.2 ± 3.6 ng/24 h/mg protein. Besides, in experiment [4], the “LPS-mediated induction of iNOS protein and mRNA” value is “enhanced the LPS-mediated induction of iNOS protein and mRNA”. Besides, in [5], the “activities of PP 1/2A” value is listed as “also inhibited the activities of PP 1/2A”. Further, the “LPS- and cytokine-induced production of NO and iNOS protein” value in experiment [6] was “inhibit the LPS- and cytokine-induced production of NO and the expression of iNOS protein”.
Regarding `C=C1[C@@H](O)[C@@H]2O[C@]3(CC[C@H](/C=C/[C@@H](C)[C@@H]4CC(C)=C[C@@]5(O[C@H](C[C@@](C)(O)C(=O)O)CC[C@H]5O)O4)O3)CC[C@H]2O[C@@H]1[C@@H](O)C[C@H](C)[C@H]1O[C@@]2(CCCCO2)CC[C@H]1C` [Okadaic acid], the TNF-α in [3] (inhibitor 5 nM) is 10.8 ± 1.2 ng/24 h/mg protein; in [3] (inhibitor 10 nM) it was 14.6 ± 1.8 ng/24 h/mg protein; in experiment [7] (inhibitor 5 nM), 24.3 ± 1.9 ng/24 h/mg protein; in [7] (inhibitor 10 nM), 28.9 ± 3.4 ng/24 h/mg protein. The “activities of PP 1/2A” value in [5] is “dose-dependently inhibited the activities of PP 1/2A”. In addition, the “LPS-induced iNOS promoter-derived CAT activity” value is on record as “stimulated the LPS-induced CAT activity in astrocytes” in experiment [8] and “inhibited the LPS-induced CAT activity in macrophages” in [9].
